Calls of active or inactive are those of the source. No cut-off for these calls is given here.
How the values were obtained:
[1] = Selectivity for gamma-secretase-mediated APP cleavage over gamma-secretase-mediated notch processing
[2] = (§1) Inhibition of gamma-secretase-mediated cleavage of human APP expressed in CHO cells assessed as reduction in amyloid beta42 production after 24 hrs by double sandwich ELISA; format: cell-based
[3] = Inhibition of gamma-secretase-mediated cleavage of human APP expressed in CHO cells assessed as reduction in amyloid beta40 production after 24 hrs by double sandwich ELISA; format: cell-based
[4] = target: Gamma-secretase (Homo sapiens) (UniProt Q96BI3+Q9NZ42+Q8WW43+P49768+Q92542+P49810); assay: (§2) Displacement of [3H](S)-5-chloro-N-(3-ethyl-1-hydroxypentan-2-yl)thiophene-2-sulfonamide from gamma secretase in human SH-SY5Y cells after 1 hr; format: cell-based
[5] = Inhibition of gamma-secretase-mediated mouse notch cleavage expressed in CHOK1 cells assessed as secreted alkaline phosphatase level after 48 hrs by chemiluminescence assay; format: cell-based; conditions: CHO-K1, 48 h
[6] = test system: CHO; assay: as §1; format: cell-based
[7] = Selectivity ratio of EC50 for gamma-secretase-mediated mouse notch cleavage to EC50 for gamma-secretase-mediated amyloid beta40 production
[8] = target: Gamma-secretase; assay: as §2; format: cell-based
[9] = Inhibition of gamma-secretase assessed as increase in beta-C-terminal fragment level after 24 hrs by double sandwich ELISA
[10] = Inhibition of gamma-secretase assessed as effect on APP level after 24 hrs by double sandwich ELISA

Question: With C[C@H](c1ccc(F)cc1CCCC(=O)O)N(c1cc(F)ccc1F)S(=O)(=O)c1ccc(Cl)cc1 as the compound, how does the Selectivity ratio [1] read?
Answer: The Selectivity ratio was 15.

Question: Which EC50 [2] does the source give for CCC(CC)[C@@H](CO)NS(=O)(=O)c1ccc(Cl)s1 [GSI-136] here?
Answer: The EC50 was 29 nM.

Question: And the EC50 [3]?
Answer: The EC50 was 29 nM.

Question: What about the Activity [4] of the same compound?
Answer: The Activity was “Active”.

Question: With CCC(CC)[C@H](NS(=O)(=O)c1ccc(Cl)s1)c1ccnn1Cc1ccc(O)cc1 as the compound, how does the EC50 [5] read?
Answer: The EC50 was 1800 nM.

Question: What about the Activity [6] of the same compound?
Answer: The Activity was “Active”.

Question: And the EC50 [3]?
Answer: The EC50 was 92 nM.

Question: And the Selectivity ratio [7]?
Answer: The Selectivity ratio was 20.

Question: And the IC50 [8]?
Answer: Its IC50 is 154 nM.

Question: And the Activity [9]?
Answer: The Activity was “Active”.

Question: And the Activity [10]?
Answer: The Activity was “Active”.
